Assay results taken from patent publication US11078277B2, “Methods and pharmaceutical compositions for enhancing CD8+ T cell-dependent immune responses in subjects suffering from cancer” (INSERM (INSTITUT NATIONAL DE LA SANTE ET DE LA RECHERCHE …, priority 2016, dated 2021).

System: Smpd3 expression
Assay: Smpd3 expression by RT-qPCR in B16K1 melanoma cells incubated with 5-aza or TSA
Assay type: cell-based, murine
Protocol: A, B16K1 cells expressing (2+) or not (2−) V5-tagged nSMase 2 were analyzed by Western blot using anti-V5 and anti-β-actin antibodies. B, Neutral SMase activity in B16K1 nSMase 2+ (2+) and nSMase 2− (2−) as well as in mock-transfected B16K1 cells. C, Intracellular ceramide levels in B16K1 nSMase 2+(2+) and nSMase 2− (2−) as well as in mock-tranfected B16K1 cells. Data are expressed as the % of values obtained with mock-transfected B16K1 cells. Values are shown as means±sem of 3 independent experiments (B and C). D, In vitro B16K1 cell growth was evaluated in 10% FCS medium (left panel) or 0% FCS medium ([…]). […] Cells were analysed by Western blot using anti-V5 and anti-β-actin antibodies. […] Data are shown as means±sem of 3 independent experiments. (*: p<0.05; **: p<0.01). G, B16K1 melanoma cells were incubated or not with 1 μM of 5 aza-2 deoxycitidine (5-aza) during 72 hours or with 0.1 μM Trichostatine A (TSA) during the last 16 hours. Smpd3 expression was analysed by RT-qPCR. Data are shown as means±sem of 3 independent experiments.
RNA isolation and qRT-PCR. RNA isolation from cells and exosomes was performed by using the Qiagen RNeasy mini kit and Qiagen miRNeasy kit respectively, according to manufacturer's instructions. […]

SMILES	Smpd3 expression (0.1 μM TSA during the last 16 hours)	Smpd3 expression (1 μM 5-aza during 72 hours)
CC(/C=C/C(=O)NO)=C\[C@@H](C)C(=O)c1ccc(N(C)C)cc1 [trichostatin A]	greatly enhanced	
Nc1ncn([C@@H]2O[C@H](CO)[C@@H](O)[C@H]2O)c(=O)n1 [5-Azacytidine]		not
